Series [1] concerns Male Harlan Sprague Dawley rats. The series is described as follows: Chemotherapy-induced pain assay (paclitaxel, von Frey). The series is classed as in vivo, rat. To be noted: for Mean paw withdrawal latencies (mean ± SE): 1 hour post-dose, n of 12. Here is the method: Male Harlan Sprague Dawley rats 150-200 grams are acclimated to the vivarium for 7 days. The animals are maintained in a constant temperature and on a 12 hour light/12 hour dark cycle, and housed in groups of 3-4 with water and food ad libitum. Twice daily dosing of compound at 10 mg/kg (oral), morphine at 5 mg/kg, and vehicle commences on Day 1 of the study, and continues through the duration of the study (Day 18). Paclitaxel at 1 mg/kg (intraperitoneal) is administered on Days 2, 4, 6, and 8, for a cumulative dose of 4 mg/kg in order to induce chemotherapy-induced peripheral neuropathy.
Rats are placed in individual plexiglass chambers with a wire mesh platform bottom to allow access to the hindpaw. After an acclimation period of 15 minutes to 1 hour, the mid-plantar hind paws are assessed within the sciatic nerve distribution. A series of 8 von Frey hairs with logarithmically incremental stiffness (0.41, 0.70, 1.20, 2.00, 3.63, 5.50, 8.50, and 15.10 g) are applied to the hind paws. The von Frey hairs are presented perpendicular to the plantar surface with sufficient force to cause slight bending. Stimuli are presented at intervals of several seconds. A positive response is noted if the paw is sharply withdrawn or if flinching immediately upon removal of the hair is observed. On study days, behavioral endpoints are evaluated 1 hour post-dose. Score patterns are evaluated using the Dixon up-down method, and translated to a response threshold (1980, Ann Rev Pharmacol Toxicol 20:441-462). The maximum applied force is 15.10 grams. The initial behavior assessment occurs on Day 10 of the study, and subsequent measures are made on Study Days 12, 15, and 18.
Results are expressed as mean values with standard errors of the mean (mean±SE) for an n of 12 per group. All statistical evaluations are conducted utilizing a one-way ANOVA followed by comparison to the control group by Dunnett's Method. Statistical significance is assumed when p<0.05. Statistical analyses are performed using JMP statistical analysis software (SAS Research Institute, version 6.0.2).

Series [2] addresses T1, hCB2 (Homo sapiens, UniProt P34972). The series is described as follows: CB2 in vitro functional assay (SPA based GTP-γ-35S binding, agonist mode). The series is classed as biochemical. Here is the method:
(§1) Exemplified compounds are tested in agonist mode using a SPA based GTP-γ-^35S binding assay. All assay components are prepared in assay buffer made up of 20 mM HEPES, 100 mM NaCl, 5 mM MgCl2, (pH 7.4 at room temperature). Semi-log compound dilutions are done in assay buffer containing BSA (final 0.125%). GTP-γ^35-S binding is measured in a 96 well format using a whole membrane capture technique for the CB1 assay and modifications of an antibody capture technique previously described (DeLapp et al. J Pharmacol Exp Ther 289:946-955, 1999) for the CB2 assay. All incubations are done at room temperature.
hCB2-Sf9 membranes and GDP (1 uM final) are added to assay buffer and homogenized. Diluted compounds and membranes are added to the assay plate and pre-incubated for 15 minutes. This is followed by addition of GTP-γ-^35S ([…] final) and another 35 minute incubation. Next a mixture containing Nonidet P40 detergent (0.2% final), anti-Gi antibody (final dilution of 1:362), and 1.25 mg anti-rabbit antibody scintillation proximity assay beads are added. The plates are then sealed, vortexed, and incubated for an additional 2 hours before centrifuging and counting as for CB1.
To analyze data, first subtract background from all wells. Determine percent agonist efficacy by normalizing agonist/inverse agonist dose response data to a full agonist (methanandamide) response. […]

The next series has as its target T2, hCB1 (Homo sapiens, UniProt P21554).
T2 construct: expressed in transfected cells; host or cells: CHO cells (membranes)
The series is described as follows: CB1 in vitro functional assay (SPA based GTP-γ-35S binding, agonist mode). The series is classed as biochemical. The protocol:
as §1
hCB1-CHO membranes, GDP (1 uM final), and saponin (10 ug/mL final) are added to assay buffer and homogenized. Diluted compounds, GTP-γ-^35S (500 nM final) and membranes are added to the assay plate and incubated for 30 minutes. Then 1 mg/well Wheatgerm Agglutinin SPA bead is added, and the plates are sealed, vortexed, and incubated for an additional hour. Plates are then centrifuged at 700×g for 10 minutes and counted for 1 minute per well using a scintillation counter.
To analyze data, first subtract background from all wells. Determine percent agonist efficacy by normalizing agonist/inverse agonist dose response data to a full agonist (methanandamide) response. Analyze the data using a 4-parameter logistic reduced fit with Activity Base and XLFit3.

The subject of a further series is male Lewis rats. Put plainly: Monoiodoacetate (MIA) model, incapacitance testing. The series is classed as in vivo. As to conditions: rat, single dose. The protocol:
For all studies male Lewis rats of approximately 8 weeks of age at the time of MIA injection are used to measure pain in the MIA model. The rats are housed in groups of 2 or 3 per cage and maintained in a constant temperature and on a 12 hour light/12 hour dark cycle. Animals have free access to food and water at all times except during data collection.
In the standard MIA model the right knees of each rat are injected with 0.3 mg MIA in 50 ul of saline and the left knees with 50 ul of saline. Pain is measured at varying times after MIA injection (not normally before 10 day post MIA injection) using incapacitance testing. This measures the difference in hind paw weight bearing between the MIA and saline injected knees, and each measurement is the average of 3 separate measurements each measured over 1 second.
For studies with CB2 agonists rats are randomized into dose groups (n=5 or 6) and then dosed once with the compound under investigation. Dosing is staggered by 15 minutes for each rat and at a predetermined time post-dose (usually 2 hours), pain measured using incapacitance testing. Studies are routinely run with 4 groups, vehicle (1% carboxy methyl cellulose in water plus 0.25% polysorbate 80) and 3 compound groups which can be either single compounds at a single dose or the same compound at 3 doses. Results are reported as the difference in weight bearing between saline and MIA injected knees and statistical comparisons are made between vehicle treated and compound treated animals to assess the effect of compounds on knee pain in the model.

The subject of a further series is beagle dog. The series is described as follows: Dose-ranging toxicity study in beagle dogs. To be noted: single oral dose of 30 mg/kg. The series is classed as in vivo. The protocol:
(§2) One male and one female beagle dog are used to evaluate the acute toxicity after a single oral gavage dose of CB2 agonist. The dogs are housed individually and maintained in a constant temperature and on a 12 hour light/12 hour dark cycle. CB2 agonist is prepared in vehicle (1% hydroxyethylcellulose, 0.25% polysorbate 80, and 0.05% Dow Corning® Antifoam 1510-US in purified water) and administered by oral gavage at a dose volume of 2 mL/kg. Dogs are observed for mortality and clinical observations (before dosing, 2 hours postdose, in the afternoon and daily thereafter). Food consumption is assessed by daily visual assessment of food remaining. Blood is collected before dosing and 48 hours after dosing to evaluate effects on haematology and clinical chemistry parameters. Blood is collected at 0.5, 1, 2, 4, 8, and 24 hours postdose to evaluate toxicokinetic plasma drug concentrations.

A short description of series [3]: Dose-ranging toxicity study in beagle dogs. To be noted: both sexes, beagle, dog, 30 mg/kg single oral dose, plasma. The series is classed as in vivo, dog. The protocol:
as §2

A further series concerns the target T3, rat CB2 receptor (Rattus norvegicus, UniProt Q9QZN9).
T3 construct: expressed in transfected cells
T3 sequence (Q9QZN9 1-360): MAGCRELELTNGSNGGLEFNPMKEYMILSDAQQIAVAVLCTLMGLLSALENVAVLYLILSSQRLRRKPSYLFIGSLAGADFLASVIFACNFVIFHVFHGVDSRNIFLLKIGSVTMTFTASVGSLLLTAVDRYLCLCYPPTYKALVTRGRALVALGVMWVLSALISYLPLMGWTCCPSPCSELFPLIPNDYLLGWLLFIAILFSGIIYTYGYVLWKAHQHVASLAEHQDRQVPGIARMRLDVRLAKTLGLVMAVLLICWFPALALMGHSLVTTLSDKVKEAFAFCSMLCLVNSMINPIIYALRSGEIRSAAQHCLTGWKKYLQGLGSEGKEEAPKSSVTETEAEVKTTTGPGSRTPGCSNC
Put plainly: Displacement of 3H-CP55940 from rat CB2 receptors. The series is classed as binding. Here is the method:
(§3) The methods of Felder et al. (Mol. Pharmaocol. 48:443-450, 1995) were utilized with minor modifications. Specifically, membrane homogenates from cells stably or transiently expressing the human or rat CB2 receptor were washed by centrifugation and diluted into a 50 mM Tris HCl (pH 7.4), 5 mM MgCl2, 2.5 mM EDTA, and 0.1% BSA buffer. Specific binding of 3H-CP55940 was defined with 1 μM CP55940. The ability of compounds to displace specific 3H-CP55940 binding was tested over a range of concentrations in the Tris, MgCl2, EDTA, BSA buffer in the presence of 1% dimethyl sulfoxide by incubating at room temperature for 90 minutes in a volume of 300 μl. Unifilter 96-well microplates pretreated with 0.5% polyvinylpyrrolidone, 0.1% polysorbate 20 in water were washed three times with cold Tris buffer. The reaction mixture was then transferred to the filter plate immediately before terminating the incubation by rapid filtration and three 200 μl washes with cold Tris buffer. After the filter plates dried, microscint 20 was added to each well, the plate sealed and counted for determination of disintegrations per minute. The displacement curves were graphed and the resulting Ki values determined utilizing Graphpad Prism.

Series [4] concerns the target T1, hCB2. Put plainly: Displacement of 3H-CP55940 from human CB2 receptors. The arrangement: expressed in transfected cells. The series is classed as binding. As to conditions: 3H-CP55940 displacement. The protocol: as §3

Structures can show the parent of a compound that is named as a salt. Where two headings read alike, the source gives them in different places.

T1 sequence (P34972 whole entry): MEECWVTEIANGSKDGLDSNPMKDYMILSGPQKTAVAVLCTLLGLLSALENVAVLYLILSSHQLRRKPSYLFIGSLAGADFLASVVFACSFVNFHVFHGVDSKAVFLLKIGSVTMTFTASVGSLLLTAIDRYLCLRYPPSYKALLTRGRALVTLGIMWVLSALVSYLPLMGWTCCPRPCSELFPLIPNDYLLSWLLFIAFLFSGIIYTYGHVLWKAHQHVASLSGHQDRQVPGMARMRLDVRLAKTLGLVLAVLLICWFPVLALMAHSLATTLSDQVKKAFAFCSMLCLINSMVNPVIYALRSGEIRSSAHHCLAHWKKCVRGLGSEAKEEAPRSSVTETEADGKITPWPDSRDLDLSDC
T2 sequence (P21554 whole entry): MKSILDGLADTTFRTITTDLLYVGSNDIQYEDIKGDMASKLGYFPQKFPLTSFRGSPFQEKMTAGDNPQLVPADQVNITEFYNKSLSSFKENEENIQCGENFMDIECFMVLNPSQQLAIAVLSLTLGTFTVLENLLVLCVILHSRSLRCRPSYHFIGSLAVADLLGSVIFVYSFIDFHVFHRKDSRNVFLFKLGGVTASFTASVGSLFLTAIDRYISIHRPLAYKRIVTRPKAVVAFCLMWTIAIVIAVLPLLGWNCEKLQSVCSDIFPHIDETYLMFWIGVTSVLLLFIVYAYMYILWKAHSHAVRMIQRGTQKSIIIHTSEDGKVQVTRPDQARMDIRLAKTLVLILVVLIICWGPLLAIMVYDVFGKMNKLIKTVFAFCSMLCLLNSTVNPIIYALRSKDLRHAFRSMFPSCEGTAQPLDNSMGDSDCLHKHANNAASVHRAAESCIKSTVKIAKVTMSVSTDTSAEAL

`CN1CC[C@]23c4c5ccc(O)c4O[C@H]2[C@@H](O)C=C[C@H]3[C@H]1C5` [Morphine, reference compound]: the “Mean paw withdrawal latencies (mean ± SE)” value in series [1] (Day 10, 5 mg/kg twice daily) came to 8.16 ± 1.22; in series [1] (Day 12, 5 mg/kg twice daily) it was 3.67 ± 0.30; in series [1] (Day 15, 5 mg/kg twice daily) it was 3.84 ± 0.45; in series [1] (Day 18, 5 mg/kg twice daily), 3.46 ± 0.42.
Turning to `COCCCn1c(-c2ccccc2Cl)nc2c(N3CCN(CCF)CC3)nc(C)nc21` [Example 6, 8-(2-Chlorophenyl)-6-[4-(2-fluoroethyl)piperazin-1-yl]-9-(3-methoxypropyl)-2-methyl-purine hydrochloride], the EC50 is 0.0027 µM on hCB2 [2] and above 100 µM on hCB1.
For `Cc1nc(N2CCN(C)CC2)c2nc(-c3ccccc3Cl)n(C(C)CO)c2n1.Cl` (single isomer, unassigned; isomer 1) [Example 18, 2-[8-(2-Chloro-phenyl)-2-methyl-6-(4-methyl-piperazin-1-yl)-purin-9-yl]-propan-1-ol hydrochloride, Isomer 1], in the series on male Lewis rats (dose of 0.3 mg/kg), the “pain versus vehicle (difference in hind paw weight bearing)” value was “reduce pain versus vehicle”.
For `Cc1nc(N2CCN(C)CC2)c2nc(-c3ccccc3Cl)n(C(C)CO)c2n1.Cl` (single isomer, unassigned; isomer 2) [Example 19, 2-[8-(2-Chloro-phenyl)-2-methyl-6-(4-methyl-piperazin-1-yl)-purin-9-yl]-propan-1-ol hydrochloride, Isomer 2], the EC50 at hCB2 [2] (agonist mode, hCB2-Sf9 membranes, read-out: relative EC50 value for CB2) is 0.0224 µM; on hCB1 (agonist mode, hCB1-CHO membranes, read-out: relative EC50 value for CB1), above 100 µM. Also, in the series on beagle dog (female dog), the faeces entry was “Decreased faeces”. The food consumption result in the series with beagle dog (female dog) is on record as “minimal decreased food consumption”. The “decrease in reticulocyte count, change relative to pre-dose” value in the series on beagle dog (female dog, 48 hours after dosing) amounted to 39%. Besides, in the series with beagle dog (one male and one female dog), the Post-dose clinical observations entry was “limited to vomiting and dilated pupils”. Also, in series [3] (read-out: mean Area-Under the Curve from 0-24 hours (AUC0-24hr)), the AUC(0-t) turned out to be 44.5 µg·h/mL. Besides, the Cmax in series [3] (read-out: mean maximum concentration (Cmax)) was found to be 7.54 µg/mL. Also, the “pain versus vehicle (difference in hind paw weight bearing)” value with male Lewis rats (dose of 0.3 mg/kg) and with male Lewis rats (dose of 1 mg/kg) was “reduce pain versus vehicle” in each case. The “allodynia compared to both vehicle and morphine-treated animals” value in series [1] (10 mg/kg oral twice daily, over the duration of the study (Day 18)) is given as “developed less allodynia”. Further, the “Mean paw withdrawal latencies (mean ± SE)” value in series [1] (Day 10, 10 mg/kg oral twice daily) came out at 11.25 ± 1.31; in series [1] (Day 12, 10 mg/kg oral twice daily) it was 7.38 ± 0.95; in series [1] (Day 15, 10 mg/kg oral twice daily), 7.90 ± 1.04; in series [1] (Day 18, 10 mg/kg oral twice daily), 6.02 ± 0.72.
Turning to `COC(C)(C)Cn1c(-c2ccccc2Cl)nc2c(N3CCN(C(C)=O)CC3)nc(C)nc21` [Example 8, 1-[4-[8-(2-Chlorophenyl)-9-(2-methoxy-2-methyl-propyl)-2-methyl-purin-6-yl]piperazin-1-yl]ethanone], the Ki was 0.0375 µM at rat CB2 receptor and 0.142 µM at hCB2 [4].
With `CC(=O)N1CCN(c2nc(C)nc3c2nc(-c2ccccc2Cl)n3CC(C)(C)O)CC1` [Example 13, 1-[4-[8-(2-Chlorophenyl)-9-(2-hydroxy-2-methyl-propyl)-2-methyl-purin-6-yl]piperazin-1-yl]ethanone hydrochloride], the Ki at rat CB2 receptor (3H-CP55940 displacement, rat CB2, read-out: rat receptor Ki value) came out at 0.215 µM; on hCB2 [4] it was 0.0652 µM.
